According to US11504362B2, “Liquid dosage forms to treat cancer” (Exelixis, Inc., priority 2017, dated 2022):
Where a name gives a salt, the structure may show the parent alone.

Columns and labels:
[1] = clinical; details: in vivo
Description: Pharmacokinetics: Serial blood, urine, and feces were collected at specified times following dosing.
All samples collected for radioactivity analysis were analyzed for total radioactivity.
Detailed reports of the bioanalytical methodologies and results accompany the clinical study report.
The other minor metabolite in plasma, p-Fluoroaniline, was analyzed by Exelixis using a validated LC/MS/MS method.
PK variables were computed using WinNonlin Professional, version 5.2.

[2] = clinical; details: in vivo; remark: listed apart in the source
Description: Samples for 2 subjects were used for the investigation study. Therefore, only 6 subjects' PK profiles were determined using a radio-quantitation method.

For `COc1cc2nccc(Oc3ccc(NC(=O)C4(C(=O)O)CC4)cc3)c2cc1OS(=O)(=O)O` [6-Demethyl Half-Dimer Sulfate], the AUC0-24 ([1]; human) was 951 ± 377 (40) h · ng/mL, the AUC0-72 ([1]; human) was 7530 ± 3200 (42) h · ng/mL and the AUC0-t ([1]; human) was 99500 ± 34500 (35) h · ng/mL. For the same molecule, the AUC0-24 ([2]; human) was 2520 ± 1370 h · ngEq/mL, the AUC0-72 ([2]; human) was 17400 ± 7000 h · ngEq/mL and the AUC0-t ([2]; human) was 89000 ± 32000 h · ngEq/mL. It also gave a Tmax ([2]; human) of ~71.99 h.
For `COc1cc2nccc(Oc3ccc(NC(=O)C4(C(=O)O)CC4)cc3)c2cc1OC` [XL184-Half-Dimer], the AUC0-24 ([1]; human) was 1080 ± 341 (32) h · ng/mL, the AUC0-72 ([1]; human) was 3120 ± 976 (31) h · ng/mL and the AUC0-inf ([1]; human) was 6770 ± 1700 (25) h · ng/mL. The AUC0-t ([1]; human) was 6540 ± 1680 (26) h · ng/mL, the t1/2 ([1]; human) was 91.8 h and the kel [1] was 0.00807 h⁻¹. The AUC0-24 ([2]; human) was 3610 ± 1350 h · ngEq/mL, the AUC0-72 ([2]; human) was 8680 ± 3980 h · ngEq/mL and the AUC0-inf ([2]; human) was 16400 ± 1770 h · ngEq/mL. The AUC0-t ([2]; human) was 11100 ± 5890 h · ngEq/mL, the Cmax ([2]; human) was 210 ± 73 ngEq/mL and the Tmax ([2]; human) was 1.49 h. It also gave a t1/2 ([2]; human) of 57.9 ± 28.4 h and a ke1 [2] of 0.0136 ± 0.00672 h⁻¹.
With `COc1cc2c(Oc3ccc(NC(=O)C4(C(=O)Nc5ccc(F)cc5)CC4)cc3)cc[n+]([O-])c2cc1OC` [XL184-N-Oxide] the AUC0-24 ([1]; human) was 2030 ± 682 (34) h · ng/mL, the AUC0-72 ([1]; human) was 5610 ± 1940 (35) h · ng/mL and the AUC0-inf ([1]; human) was 10300 ± 3170 (31) h · ng/mL. The AUC0-t ([1]; human) was 10100 ± 3210 (32) h · ng/mL, the t1/2 ([1]; human) was 89.2 h and the kel [1] was 0.00846 h⁻¹. It also gave an AUC0-24 ([2]; human) of 4300 ± 1460 h · ngEq/mL, an AUC0-72 ([2]; human) of 10600 ± 3490 h · ngEq/mL and an AUC0-inf ([2]; human) of 20800 ± 7640 h · ngEq/mL. The AUC0-t ([2]; human) was 13300 ± 8360 h · ngEq/mL, the t1/2 ([2]; human) was 73.1 h and the ke1 [2] was 0.00976 ± 0.00212 h⁻¹.
With `Nc1ccc(F)cc1` [p-Fluoroaniline, Para-fluoroaniline] the Plasma concentrations ([1]; male, human) was < 2.0 ng/mL.
